Entries after “also recorded” stand apart in the source; their conditions may differ.
Experiments:
T98G parental cells = assay: PCR stop assay for DNA damage (2.7 Kb HPRT fragment) in T98G parental cells; assay type: cell-based, human
Procedure: (§1) This assay has been described (Oshita and Saijo, 1994; Jannerwein and Eastman, 1991). The assay is based on the principle that every DNA lesion, including adducts produced by cisplatin, can potentially block the progression of the Taq polymerase and decrease the yield of a given PCR™ product. […] Furthermore, when whole cells are incubated with varying levels of cisplatin, the degree of inhibition of amplification of a specific PCR™ product from DNA purified from these cells, correlates closely with the amount of DNA damage (level of DNA platination) as measured by atomic adsorption (Jannerwein and Eastman, 1991). The following primers (used by Oshita and Saijo, 1994) which amplify a 2.7 Kb fragment of the human hypoxanthine phosphoribosyl transferase (HPRTase) gene were used:
(§2) As an internal control for the efficiency of the PCR™ reaction, a nested 5′ primer which amplifies a 150 bp fragment of the same gene was used:
At the cisplatin levels used to treat the cells, damage to the smaller fragment is undetectable. […] In some experiments, 3-aminobenzamide (10 mM), an inhibitor of ADP ribosylation and DNA repair (see Din et al., 1992) was added during the 6 hour recovery period. […] DNA was washed with 70% EtOH to remove salt, followed by 100% EtOH dried briefly, and resuspended at 1 mg/ml in sterile H2O. Quantitative PCR™ was performed in 50 μl aliquots using 0.5 μg DNA, 50 pmol of forward primer for 2.7 Kb fragment, 50 pmol reverse primer, and 5 pmol of forward primer for the 150 base fragment, 50 mM KCL, 10 nmM Tris pH 8.3, 1.5 mM MgCl2, […], 0.5 μl Tac polymerasse (Perkin Elmer), and 1 pmol radioactively end-labeled reverse primer (labeled with y-^32P-dATP). Amplification conditions were as follows: 1 cycle: 94° C., 1′30; 25 cycles: 94° (1 min)-57° (1 min)-70° (2′30″); 1 cycle:94° (1 min)-57° (1 min)-70° (7′). […] The gel was vacuum-dried for two hours onto filter paper and the PCR™-amplified 2.7 Kb and 150 bp bands were quantitated using an Ambis4000 Radioanalytic Imaging system (Ambis, Inc., San Diego, Calif.).

[1] = tested on: 9L rat glioblastoma cells; assay: Cell viability assay (MTS) in 9L rat glioblastoma cells; assay type: cell-based
Procedure: (§3) T98G glioblastoma cells were obtained from ATCC and cultured at 37° C. 10% CO2 in Dulbecco's Modified Eagles Medium supplemented with 10% newborn calf serum. 9L rat glioblastoma cells were obtained from Carol Cruse (University of Colorado) and cultured at 37° C. in 10% CO2 in Dulbecco's Modified Eagles Medium supplemented with 10% fetal Calf serum. The T98G-LHCmjun clone (termed T98G mutant jun or T98G-mjun), as well as control empty vector modified clone (termed T98GLHCX) were obtained from Dr. Dan Mercola (Sidney Kimmel Cancer Center) and were cultured in the same way as were T98G cells except that 100 μg/ml hygromycin was added to the culture medium. The 98G-mjun is stably modified to express a dominant negative mutant of c-jun (the mutant was obtained by site-directed mutagenesis by M. Karin and colleagues and is described by Smeal et al. (1991). Mutant jun has ser→ala substitutions at positions 63 and 73, two sites of DNA damage-induced phosphorylation, and can therefore not be phosphorylated at these sites. 9LpCEPp53 (or 9LpCEP4, control) were cultured in the same way at 9L cells except that 50 μg/ml hygromycin was added to the medium.
Rat 9L glioblastoma cells express p53 mutated at codon 277 (J. Neuroonal. 19:259-268, 1994.) 9LpCEPp53 (or 9LpCEP4) were obtained by transducing 5×10^5 9L cells with 15 μG of pCEPp53 (or pCEP4) using Lipofectamine (GIBCO/BRL, Gaithersberg, Md.) following the manufacturer's instructions. Clones were selected in 50 μg/ml hygromycin and characterized for wild-type p53 expression by immunoprecipitation (immunoprecipitation procedure described in: Gjerset et al., Molec. Carcinog. 5:190-198, 1992) using the 1801 anti-p53 antibody specific for human p53 (p-Ab-2, Oncogene Science, Uniondale, N.Y.), and by the PG13 functional assay described above. pCEPp53 was derived by inserting the human wild-type p53 cDNA into the multicloning site of pCEP4.
(§4) Cells were infected when they were at 80% confluence with either 100 pfu per cell overnight in DMEM containing 2% heat-inactivated FBS (for T98G and clones derived from T98G) or at 50 pfu per cell for 2 hours (9L cells). The efficiency of infection was determined by staining a sample of the β-gal virus-infected cells at 48 hrs post-infection as described (Dannenerg and Saga, 1981).
(§5) Viability assays were performed in 96 wells plates 6-7 days after plating. Cells were plated at a starting cell number per well of 1000. Triplicate or quadruplicate wells were set up for each assay point. […] For cisplatin treatment, triplicate or quadruplicate wells were exposed for 1 hour to various concentrations of cisplatin (Platinol™), and then incubated in the absence of cisplatin for 7 days, during which time control (untreated) wells were in exponential phase growth. Viable cell number was based on the bioconversion of the tetrazolium compound, MTS, into formazan (Promega, Celltiter96™Aqeous), as determined by absorbance at […] using an ELISA reader. For 3-aminobenzamide (ABZ) treatment, triplicate or quadruplicate wells were treated with either 5 mM ABZ or 10 mM ABX. Fresh ABZ was added every two days and viability was scored as described above at 6 days. Assays involving the synthetic retinoid SR11220 were performed in the presence of charcoal-treated fetal bovine serum. Medium was replaced every two days with medium containing fresh retinoid.

T98G-mutant jun cells = assay: PCR stop assay for DNA damage (2.7 Kb HPRT fragment) in T98G-mutant jun cells; assay type: cell-based, human; settings: varying concentrations
Procedure: as §1, §2
At the cisplatin levels used to treat the cells, damage to the smaller fragment is undetectable. […] In some experiments, 3-aminobenzamide (10 mM), an inhibitor of ADP ribosylation and DNA repair (see Din et al., 1992) was added during the 6 hour recovery period. […] The gel was vacuum-dried for two hours onto filter paper and the PCR™-amplified 2.7 Kb and 150 bp bands were quantitated using an Ambis4000 Radioanalytic Imaging system (Ambis, Inc., San Diego, Calif.).

T98G glioblastoma cells = assay: Cell viability assay (MTS) in T98G glioblastoma cells; assay type: cell-based; settings: for cell viability: 7 days post-treatment
Procedure: as §3, §4, §5

T47D breast cancer cells = assay: Cell viability assay (MTS) in T47D breast cancer cells; assay type: cell-based; settings: for cell viability: one hour cisplatin, various concentrations, 7 days post-infection; for viability: 7 days
Procedure: Cells were infected when they were at 80% confluence with either 100 pfu per cell overnight in DMEM containing 2% heat-inactivated FBS (for T98G and clones derived from T98G) or at 50 pfu per cell for 2 hours (9L cells).
as §5

**Q.** What does the source list for NC(=O)c1cccc(N)c1 [3-aminobenzamide]?
**A.** DNA damage (percentage of control PCR signal) (T98G parental cells; 10 mM 3-aminobenzamide, six hours post treatment with varying concentrations of cisplatin): significant DNA damage; viability ([1]; 9L cells stably expressing human wild-type p53 (pCEPp53), 5 mM 3-aminobenzamide for 6 days): low viability; viability ([1]; 9L cells stably expressing human wild-type p53 (pCEPp53), 10 mM 3-aminobenzamide for 6 days): even lower viability; growth inhibition ([1]; 9L cells stably expressing only control vector pCEP4, both 5 mM and 10 mM 3-aminobenzamide, 6 days): resistant to growth inhibition

**Q.** Which results are given for N.N.[Cl][Pt][Cl] [cisplatin]?
**A.** repair of DNA damage (T98G-mutant jun cells; six hours after 1.5 hours cisplatin): not able to be repaired; DNA damage (percentage of control PCR signal) (T98G-mutant jun cells; zero hour after 1.5 hours cisplatin): high levels of DNA damage; cell growth / viability (T98G glioblastoma cells; T98G cells infected with wild-type p53 adenovirus, one hour cisplatin, various concentrations, 7 days post-infection): growth suppression in a dose dependent manner; growth rate (T98G glioblastoma cells; T98G cells infected with βgal adenovirus, increasing levels of cisplatin, 7 days post-infection): slightly reduce growth rate; cell viability (T98G glioblastoma cells; T98G cells stably modified with wild-type p53 vector pLp53RNL, one hour cisplatin, increasing doses): reduced in a dose dependent manner; cell viability (T98G glioblastoma cells; control T98G cells stably modified with vector only, pLNRL, one hour cisplatin): more resistant; cell viability (T47D breast cancer cells; T47D cells infected with wild-type p53 adenovirus, two days post-infection): decreased with increasing doses of cisplatin; viability (T47D breast cancer cells; T47D cells infected with βgal adenovirus control, 10^−8 M SR11220, 10 μM cisplatin or combination): not reduced significantly; cell viability (T47D breast cancer cells; control T47D cells infected with βgal-adenovirus): significantly more refractory; viability (T47D breast cancer cells; p53 adenovirus infected T47D cells, 10 μM cisplatin, 1 hour exposure): an even greater effect on the reduction in viability; DNA damage (percentage of control PCR signal) (T98G parental cells; six hours after 1.5 hour cisplatin treatment, no 3-aminobenzamide): partially reduced; also recorded: no significant DNA damage remained; DNA damage (percentage of control PCR signal) (T98G parental cells; zero hours after 1.5 hour treatment with varying concentrations of cisplatin): considerable DNA damage; viability ([1]; 9L cells infected with p53 adenovirus, compared to βgal adenovirus, 50 μM cisplatin one day later, measured seven days after cisplatin): significant decrease in viability; cell viability ([1]; 9L cells stably modified with wild-type p53 vector pCEPp53, compared to control vector pCEP4, one hour cisplatin, various concentrations, 7 days post-treatment): significantly reduced the viability

Source: US20050095226A1, “Down-regulation of DNA repair to enhance sensitivity to p53-mediated suppression” (priority 1996, published 2005)
